Test results published in patent US20250295600A1, “EXTRACELLULAR VESICLES DERIVED FROM MILK AND PROCESS FOR ISOLATING THE SAME” (EVOBIOTIX SA, priority 2021, published 2025).

Test system: Candida albicans SC5314
Assay: Susceptibility of Candida albicans, broth microdilution method
Format: cell-based
Details: 24 hours, replicate 1
Description: Susceptibility of Candida albicans SC5314 to milk EVs and milk EVs loaded with Amphotericin B (AmpB) was performed by the broth microdilution method, using RPMI-1640 medium and MOPS buffer in a concentration range from 200 nM and 0.39 nM for AmpB loaded EVs and equal particles/mL of unloaded EVs. AmpB alone was also tested at concentrations from 8 µM to 15.12 nM.
The broth micro dilution test is performed using sterile round bottomed 96 well microtiter plates. 50 μL of 1×PBS at pH 7.4 is added to Rows 1 to Row 7, except for Column 1 of Row 3 to Row 7. 100 μL of EVs (BMEV, BMEV-AmpB, GMEV and GMEV-AmpB) at 2× desired concentrations is added to Rows 4 to Row 7 of Column 1. 100 μL of AmpB at 2× desired concentration (i.e. 16 μM) is added to Row 3 of Column 1. 2-fold dilutions were performed by transferring 50 μL from Column 1 to Column 10 of Rows 3 to 7, and homogenised to ensure proper dilution of the compound by half. Row 1 was used as a blank for spectrophotometric readings and Row 2 is used as a growth control. After the plates are prepared, 2× inoculum concentration are prepared with a total cell concentration of 1e+3 to 5e+3 CFU/mL prepared in RPMI 1640 media (with glutamine, without bicarbonate, and with phenol red as a pH indicator) in MOPS according to CLSI media preparation guidelines. Each well of the microtiter plate was inoculated with 50 μL of the 2× inoculum to yield a final cell concentration of 0.5e+3 to 2.5e+3 CFU/mL in the wells. After inoculation, the plates are incubated at 35° C. for 24 hours. Post-incubation, the plates are read at 600 nm using the Thermo Scientific Multiskan Go, and data was recorded. Agitation prior to reading the plate will help with accurate readings.
10.4 g powdered RPMI 1640 medium (with glutamine and phenol red, without bicarbonate); 34.53 g MOPS (3-[N-morpholino] propanesulfonic acid) buffer.
Dissolve powdered medium in 900 mL distilled H2O. Add MOPS (final concentration of 0.165 mol/L) and stir until dissolved. While stirring, adjust the pH to 7.0 at 25° C. using 1 mol/L sodium hydroxide.
Add additional water to bring medium to a final volume of 1 L. Filter sterilize and store at 4° C. until use.
The steps for preparation of inoculum are as follows: • I. Candida albicans SC5314 was subcultured from sterile vials onto Sabouraud dextrose agar or Potato Dextrose agar and passaged to ensure purity and viability. The incubation temperature throughout was 35° C. • II. The inoculum was prepared by picking five colonies of ca. 1 mm in diameter from 24-hour old culture. The colonies were suspended in 1 mL of sterile 1×PBS at pH 7.4. A 10-fold dilution was prepared in PBS. 10 μL of the diluted inoculum with equal volume of Trypan Blue was mixed and counted using a haemocytometer. • III. The suspension should be vortexed for 15 seconds and the cell density adjusted by adding sufficient sterile 1×RPMI-1640 to yield a cell concentration of 1e+3 to 5e+3 CFU/mL.

For `C[C@@H]1[C@H](O)[C@@H](C)/C=C/C=C/C=C/C=C/C=C/C=C/C=C/[C@H](O[C@@H]2O[C@H](C)[C@@H](O)[C@H](N)[C@@H]2O)C[C@@H]2O[C@](O)(C[C@@H](O)C[C@@H](O)[C@H](O)CC[C@@H](O)C[C@@H](O)CC(=O)O[C@H]1C)C[C@H](O)[C@H]2C(=O)O` [AmpB, Amphotericin B], the “Abs (read at 600 nm)” value (AmpB concentration 15.12 nM) was 0.13, the “Abs (read at 600 nm)” value (AmpB concentration 31.25 nM) was 0.15 and the “Abs (read at 600 nm)” value (AmpB concentration 62.5 nM) was 0.13. The “Abs (read at 600 nm)” value (AmpB concentration 125 nM) was 0.15, the “Abs (read at 600 nm)” value (AmpB concentration 250 nM) was 0.13 and the “Abs (read at 600 nm)” value (AmpB concentration 500 nM) was 0.08. For the same compound, the “Abs (read at 600 nm)” value (AmpB concentration 1 μM) was 0.08, the “Abs (read at 600 nm)” value (AmpB concentration 2 μM) was 0.00 and the “Abs (read at 600 nm)” value (AmpB concentration 4 μM) was 0.00. For the same compound, the “Abs (read at 600 nm)” value (AmpB concentration 8 μM) was 0.00.
